ChEMBL document CHEMBL1152560, “Substituted 2-arylbenzothiazoles as kinase inhibitors: hit-to-lead optimization” (Bioorg Med Chem, 2009)

How the values were obtained:
[1] = biological target: T1, Discoidin domain-containing receptor 2 (Homo sapiens) (UniProt Q16832); assay: Residual activity of DDR2 at 1 uM by microplate scintillation counting
T1 sequence (whole entry): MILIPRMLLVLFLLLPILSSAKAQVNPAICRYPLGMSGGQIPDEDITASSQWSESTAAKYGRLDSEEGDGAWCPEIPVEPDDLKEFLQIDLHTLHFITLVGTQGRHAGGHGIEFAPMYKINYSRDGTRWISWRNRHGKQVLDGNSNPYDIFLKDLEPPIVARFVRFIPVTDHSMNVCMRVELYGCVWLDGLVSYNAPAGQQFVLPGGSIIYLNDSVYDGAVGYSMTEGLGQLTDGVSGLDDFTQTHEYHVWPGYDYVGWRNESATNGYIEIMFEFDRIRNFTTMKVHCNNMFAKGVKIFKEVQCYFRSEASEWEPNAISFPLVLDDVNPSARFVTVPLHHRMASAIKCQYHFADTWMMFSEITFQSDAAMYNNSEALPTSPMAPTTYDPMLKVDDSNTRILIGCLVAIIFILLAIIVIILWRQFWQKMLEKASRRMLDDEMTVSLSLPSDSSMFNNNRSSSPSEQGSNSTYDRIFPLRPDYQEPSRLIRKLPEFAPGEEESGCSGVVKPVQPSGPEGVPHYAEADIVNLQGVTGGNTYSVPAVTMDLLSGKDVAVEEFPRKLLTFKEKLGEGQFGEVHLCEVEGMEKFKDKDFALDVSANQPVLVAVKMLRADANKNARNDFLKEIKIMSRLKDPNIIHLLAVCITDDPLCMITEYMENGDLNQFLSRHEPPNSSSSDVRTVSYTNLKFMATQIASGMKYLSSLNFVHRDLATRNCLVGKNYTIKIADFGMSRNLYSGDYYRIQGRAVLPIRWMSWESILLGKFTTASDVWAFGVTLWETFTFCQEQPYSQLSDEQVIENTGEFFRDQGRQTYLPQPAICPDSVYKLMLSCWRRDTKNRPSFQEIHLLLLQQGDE

[2] = biological target: SRSF protein kinase 1 (Homo sapiens) (UniProt Q96SB4); assay: Residual activity of SRPK1 at 1 uM by microplate scintillation counting
Sequence of SRSF protein kinase 1 (Homo sapiens) (Q96SB4 whole entry): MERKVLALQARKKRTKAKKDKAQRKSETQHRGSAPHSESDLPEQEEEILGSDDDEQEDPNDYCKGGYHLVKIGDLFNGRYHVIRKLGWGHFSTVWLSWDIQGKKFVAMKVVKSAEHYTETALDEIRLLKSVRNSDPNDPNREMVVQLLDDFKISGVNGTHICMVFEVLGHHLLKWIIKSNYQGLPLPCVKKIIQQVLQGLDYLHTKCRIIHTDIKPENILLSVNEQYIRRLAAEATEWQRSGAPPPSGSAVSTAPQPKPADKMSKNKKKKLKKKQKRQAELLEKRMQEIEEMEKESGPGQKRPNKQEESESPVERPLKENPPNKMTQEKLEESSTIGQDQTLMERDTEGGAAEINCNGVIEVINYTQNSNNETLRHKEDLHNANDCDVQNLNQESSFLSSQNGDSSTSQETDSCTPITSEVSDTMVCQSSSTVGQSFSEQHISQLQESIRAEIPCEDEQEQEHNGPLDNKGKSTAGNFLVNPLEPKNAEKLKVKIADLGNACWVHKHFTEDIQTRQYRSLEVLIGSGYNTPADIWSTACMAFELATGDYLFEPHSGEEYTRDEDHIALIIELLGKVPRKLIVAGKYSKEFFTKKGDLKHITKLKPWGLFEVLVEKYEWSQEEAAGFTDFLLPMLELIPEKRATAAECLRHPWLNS

[3] = biological target: T2, Serine/threonine-protein kinase VRK1 (Homo sapiens) (UniProt Q99986); assay: Residual activity of VRK1 at 1 uM by microplate scintillation counting
T2 sequence (whole entry): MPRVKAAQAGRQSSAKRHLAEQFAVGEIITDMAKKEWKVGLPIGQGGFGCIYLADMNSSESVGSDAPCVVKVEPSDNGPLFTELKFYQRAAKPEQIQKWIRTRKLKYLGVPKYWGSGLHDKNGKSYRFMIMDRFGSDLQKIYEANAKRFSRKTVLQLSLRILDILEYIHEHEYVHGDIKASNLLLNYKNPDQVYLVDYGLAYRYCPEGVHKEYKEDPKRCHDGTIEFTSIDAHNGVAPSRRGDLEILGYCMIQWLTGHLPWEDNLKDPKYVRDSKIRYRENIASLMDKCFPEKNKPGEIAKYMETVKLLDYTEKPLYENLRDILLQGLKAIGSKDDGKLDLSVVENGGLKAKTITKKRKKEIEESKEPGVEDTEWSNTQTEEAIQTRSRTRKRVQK

[4] = tested on: Epidermal growth factor receptor (Homo sapiens), P00533 [L858R,T790M]; assay: Residual activity of EGFR T790M/L858R mutant at 10 uM by microplate scintillation counting
[5] = biological target: Platelet-derived growth factor receptor alpha (Homo sapiens) (UniProt P16234); assay: Residual activity of PDGFRalpha at 10 uM by microplate scintillation counting
Sequence of Platelet-derived growth factor receptor alpha (Homo sapiens) (P16234 whole entry): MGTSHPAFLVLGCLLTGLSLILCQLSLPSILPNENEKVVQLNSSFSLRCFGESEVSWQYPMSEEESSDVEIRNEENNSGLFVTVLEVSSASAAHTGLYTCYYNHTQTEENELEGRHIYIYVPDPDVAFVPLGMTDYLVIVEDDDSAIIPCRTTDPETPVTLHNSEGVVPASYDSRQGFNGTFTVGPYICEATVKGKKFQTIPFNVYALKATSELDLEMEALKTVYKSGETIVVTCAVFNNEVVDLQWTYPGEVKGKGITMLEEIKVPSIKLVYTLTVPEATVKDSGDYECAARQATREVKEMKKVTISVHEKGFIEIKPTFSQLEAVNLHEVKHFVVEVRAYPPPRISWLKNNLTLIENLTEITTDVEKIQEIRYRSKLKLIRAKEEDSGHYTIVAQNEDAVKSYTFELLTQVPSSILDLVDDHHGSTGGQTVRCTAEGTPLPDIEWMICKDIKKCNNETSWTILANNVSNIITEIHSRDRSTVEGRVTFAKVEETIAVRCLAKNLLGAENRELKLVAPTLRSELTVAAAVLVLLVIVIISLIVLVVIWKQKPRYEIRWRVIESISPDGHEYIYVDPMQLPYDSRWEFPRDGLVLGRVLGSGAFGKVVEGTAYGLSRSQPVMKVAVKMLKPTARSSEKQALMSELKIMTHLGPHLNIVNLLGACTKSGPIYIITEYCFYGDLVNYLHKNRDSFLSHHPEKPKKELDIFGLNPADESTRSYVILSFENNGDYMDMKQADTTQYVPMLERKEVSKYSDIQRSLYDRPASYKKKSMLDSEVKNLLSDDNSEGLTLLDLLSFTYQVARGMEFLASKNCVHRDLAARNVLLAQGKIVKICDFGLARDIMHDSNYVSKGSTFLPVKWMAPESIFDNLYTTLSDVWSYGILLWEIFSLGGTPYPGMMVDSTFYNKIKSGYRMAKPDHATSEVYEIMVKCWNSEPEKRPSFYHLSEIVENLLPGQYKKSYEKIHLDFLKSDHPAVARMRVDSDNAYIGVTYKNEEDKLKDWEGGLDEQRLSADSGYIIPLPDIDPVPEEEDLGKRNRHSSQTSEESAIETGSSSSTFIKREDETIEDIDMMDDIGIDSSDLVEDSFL

[6] = biological target: Rho-associated protein kinase 1 (Homo sapiens) (UniProt Q13464); assay: Residual activity of ROCK1 at 10 uM by microplate scintillation counting
Sequence of Rho-associated protein kinase 1 (Homo sapiens) (Q13464 2-1354 limits assumed): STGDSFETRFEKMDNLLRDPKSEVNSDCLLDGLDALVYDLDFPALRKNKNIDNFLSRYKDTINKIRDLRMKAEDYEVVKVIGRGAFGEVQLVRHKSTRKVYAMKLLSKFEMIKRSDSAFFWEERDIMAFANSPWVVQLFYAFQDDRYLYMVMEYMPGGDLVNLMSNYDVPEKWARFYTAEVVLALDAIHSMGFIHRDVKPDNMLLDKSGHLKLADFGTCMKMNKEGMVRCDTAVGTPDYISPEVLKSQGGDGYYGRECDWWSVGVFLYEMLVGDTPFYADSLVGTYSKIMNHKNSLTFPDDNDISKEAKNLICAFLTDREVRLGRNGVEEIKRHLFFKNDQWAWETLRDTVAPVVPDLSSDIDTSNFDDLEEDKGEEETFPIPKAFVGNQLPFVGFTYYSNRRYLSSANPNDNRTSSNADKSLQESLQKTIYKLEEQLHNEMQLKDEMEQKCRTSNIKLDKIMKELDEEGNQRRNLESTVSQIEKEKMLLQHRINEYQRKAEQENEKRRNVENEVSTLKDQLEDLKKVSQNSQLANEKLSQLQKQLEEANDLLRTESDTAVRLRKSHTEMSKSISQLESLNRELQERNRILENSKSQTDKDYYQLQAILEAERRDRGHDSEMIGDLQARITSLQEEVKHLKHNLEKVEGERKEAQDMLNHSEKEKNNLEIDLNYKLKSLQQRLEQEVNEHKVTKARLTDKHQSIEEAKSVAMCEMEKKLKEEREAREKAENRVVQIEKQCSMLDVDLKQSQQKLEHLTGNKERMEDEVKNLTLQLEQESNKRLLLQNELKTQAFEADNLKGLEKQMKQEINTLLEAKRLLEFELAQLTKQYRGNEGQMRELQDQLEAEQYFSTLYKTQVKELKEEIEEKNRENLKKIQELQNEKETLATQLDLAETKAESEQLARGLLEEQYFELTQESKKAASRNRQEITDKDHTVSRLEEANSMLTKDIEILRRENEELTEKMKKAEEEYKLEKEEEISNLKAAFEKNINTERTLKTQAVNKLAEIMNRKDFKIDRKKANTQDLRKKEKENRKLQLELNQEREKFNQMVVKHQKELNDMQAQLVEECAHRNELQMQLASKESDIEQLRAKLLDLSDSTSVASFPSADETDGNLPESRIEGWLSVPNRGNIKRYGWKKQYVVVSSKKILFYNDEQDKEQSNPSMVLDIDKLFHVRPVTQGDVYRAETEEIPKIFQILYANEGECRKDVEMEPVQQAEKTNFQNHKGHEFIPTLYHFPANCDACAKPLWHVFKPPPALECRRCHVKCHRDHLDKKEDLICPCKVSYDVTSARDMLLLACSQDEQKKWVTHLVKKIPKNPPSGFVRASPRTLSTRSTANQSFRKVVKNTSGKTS

[7] = biological target: Rho-associated protein kinase 2 (Homo sapiens) (UniProt O75116); assay: Residual activity of ROCK2 at 10 uM by microplate scintillation counting
Sequence of Rho-associated protein kinase 2 (Homo sapiens) (O75116 whole entry, looked up): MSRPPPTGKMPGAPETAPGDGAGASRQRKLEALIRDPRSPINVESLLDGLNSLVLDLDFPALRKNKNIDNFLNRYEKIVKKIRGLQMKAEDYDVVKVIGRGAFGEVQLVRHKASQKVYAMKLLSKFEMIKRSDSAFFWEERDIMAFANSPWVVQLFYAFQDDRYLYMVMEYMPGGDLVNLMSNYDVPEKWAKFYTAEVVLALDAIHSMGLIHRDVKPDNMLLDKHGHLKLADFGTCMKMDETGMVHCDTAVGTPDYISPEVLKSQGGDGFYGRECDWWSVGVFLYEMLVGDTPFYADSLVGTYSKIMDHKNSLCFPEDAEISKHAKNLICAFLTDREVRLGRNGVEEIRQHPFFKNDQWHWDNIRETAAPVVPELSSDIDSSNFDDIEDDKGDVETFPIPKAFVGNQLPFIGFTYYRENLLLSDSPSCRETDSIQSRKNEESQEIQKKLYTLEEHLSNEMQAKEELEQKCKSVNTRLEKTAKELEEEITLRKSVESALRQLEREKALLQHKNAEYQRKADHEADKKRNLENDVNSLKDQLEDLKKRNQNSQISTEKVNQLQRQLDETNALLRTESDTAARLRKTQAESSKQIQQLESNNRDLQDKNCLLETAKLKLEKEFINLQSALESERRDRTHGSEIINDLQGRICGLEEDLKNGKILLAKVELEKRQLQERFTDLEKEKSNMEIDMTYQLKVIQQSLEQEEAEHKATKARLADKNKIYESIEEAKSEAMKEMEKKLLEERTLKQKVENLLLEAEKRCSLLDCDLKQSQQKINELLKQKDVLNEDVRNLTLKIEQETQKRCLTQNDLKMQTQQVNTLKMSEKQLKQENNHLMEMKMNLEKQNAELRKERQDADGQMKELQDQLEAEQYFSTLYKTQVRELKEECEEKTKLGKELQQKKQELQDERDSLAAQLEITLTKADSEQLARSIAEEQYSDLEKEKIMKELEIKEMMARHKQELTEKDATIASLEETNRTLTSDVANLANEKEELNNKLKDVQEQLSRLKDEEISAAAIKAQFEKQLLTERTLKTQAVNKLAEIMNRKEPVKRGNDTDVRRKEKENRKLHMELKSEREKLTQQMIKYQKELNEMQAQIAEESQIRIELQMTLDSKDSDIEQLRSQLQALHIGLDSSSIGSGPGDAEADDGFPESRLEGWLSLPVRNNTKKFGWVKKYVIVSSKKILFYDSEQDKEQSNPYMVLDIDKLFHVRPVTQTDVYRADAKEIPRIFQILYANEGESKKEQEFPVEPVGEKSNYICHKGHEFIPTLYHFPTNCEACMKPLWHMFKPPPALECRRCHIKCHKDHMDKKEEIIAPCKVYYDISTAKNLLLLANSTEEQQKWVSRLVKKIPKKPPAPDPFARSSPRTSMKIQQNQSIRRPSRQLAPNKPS

[8] = biological target: T3, NUAK family SNF1-like kinase 2 (Homo sapiens) (UniProt Q9H093); assay: Residual activity of SNARK at 0.1 uM by microplate scintillation counting
T3 sequence (whole entry): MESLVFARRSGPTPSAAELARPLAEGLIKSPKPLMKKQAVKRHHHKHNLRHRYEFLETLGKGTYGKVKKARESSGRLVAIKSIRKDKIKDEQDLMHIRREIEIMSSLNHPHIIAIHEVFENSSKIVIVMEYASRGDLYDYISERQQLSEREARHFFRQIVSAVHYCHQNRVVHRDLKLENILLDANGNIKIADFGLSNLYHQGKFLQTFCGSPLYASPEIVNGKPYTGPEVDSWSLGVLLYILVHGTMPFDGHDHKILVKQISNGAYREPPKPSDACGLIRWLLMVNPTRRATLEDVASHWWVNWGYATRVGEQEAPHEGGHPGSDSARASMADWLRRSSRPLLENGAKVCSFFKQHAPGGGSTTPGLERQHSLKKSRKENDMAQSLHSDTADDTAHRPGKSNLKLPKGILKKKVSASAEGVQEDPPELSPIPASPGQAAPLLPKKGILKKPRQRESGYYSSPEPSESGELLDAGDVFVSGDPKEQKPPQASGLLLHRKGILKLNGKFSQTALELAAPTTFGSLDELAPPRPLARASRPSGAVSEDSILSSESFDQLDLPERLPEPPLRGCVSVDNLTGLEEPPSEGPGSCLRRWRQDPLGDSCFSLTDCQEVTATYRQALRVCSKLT

[9] = biological target: T4, Serine/threonine-protein kinase TBK1 (Homo sapiens) (UniProt Q9UHD2); assay: Residual activity of TBK1 at 0.1 uM by microplate scintillation counting
T4 sequence (whole entry): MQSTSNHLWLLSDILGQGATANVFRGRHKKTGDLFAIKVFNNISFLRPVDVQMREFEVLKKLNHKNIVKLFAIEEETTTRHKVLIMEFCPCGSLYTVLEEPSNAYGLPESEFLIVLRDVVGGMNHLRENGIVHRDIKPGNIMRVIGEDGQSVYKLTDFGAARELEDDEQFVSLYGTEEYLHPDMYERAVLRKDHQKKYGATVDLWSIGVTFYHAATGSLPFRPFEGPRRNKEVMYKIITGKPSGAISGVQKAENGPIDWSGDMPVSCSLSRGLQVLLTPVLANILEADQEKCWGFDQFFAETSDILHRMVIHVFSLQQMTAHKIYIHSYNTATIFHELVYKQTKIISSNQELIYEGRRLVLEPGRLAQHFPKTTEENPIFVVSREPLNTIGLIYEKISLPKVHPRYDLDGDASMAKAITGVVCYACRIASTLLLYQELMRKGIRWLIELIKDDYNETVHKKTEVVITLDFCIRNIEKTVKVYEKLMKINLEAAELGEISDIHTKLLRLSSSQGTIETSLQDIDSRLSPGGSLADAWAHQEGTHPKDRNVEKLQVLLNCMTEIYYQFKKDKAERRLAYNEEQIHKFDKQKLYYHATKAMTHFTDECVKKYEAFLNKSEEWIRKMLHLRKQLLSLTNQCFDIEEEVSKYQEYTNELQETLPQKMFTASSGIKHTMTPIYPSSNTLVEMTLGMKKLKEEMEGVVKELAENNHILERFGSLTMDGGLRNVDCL

residual activity [1]	residual activity [2]	residual activity [3]	residual activity [4]	residual activity [5]	residual activity [6]	residual activity [7]	residual activity [8]	residual activity [9]	SMILES
99%	100%	95%	147%	15%	81%	84%	84%	94%	COc1cc2c(Oc3ccc(-c4nc5ccccc5s4)cc3)ncnc2cc1OCCCN1CCCC1
79%	103%	103%	167%	20%	68%	54%	96%	79%	COc1cc2c(Oc3ccc(-c4nc5ccccc5s4)cc3)ncnc2cc1OCCCN1CCN(C)CC1
88%	104%	98%	70%	30%	73%	47%	88%	94%	COc1cc2c(Oc3ccc(-c4nc5ccccc5s4)cc3F)ncnc2cc1OCCCN1CCN(C)CC1
